Patent publication US12319913B2, “5-halouracil-modified microRNAs and their use in the treatment of cancer” (The Research Foundation for The State University of New York, priority 2018, dated 2025)
[5FU] = 5-fluorouracil base replacing uracil

How the values were obtained:
A549 lung cancer cells = assay: Cell proliferation, A549; type: cell-based, human; details: A549, compared to negative controls
Description: (§1) For transfections, 1×10^5 cells were plated in six-well plates and transfected with 100 nM of control non-specific miRNA (Thermo Fischer), a modified microRNA, or exogenous native microRNA after 24 hours using Oligofectamine (Thermo Fischer) following the manufacturer's protocols. For reagent free transfection, cells were plated in 6 well plates at (1×10^5) cells per well. Twenty-four hours later 100 pmol miRNA (Control, miR-15a, Mimic-1) were diluted in Optimem (Thermo Fischer) and added to the plate. Media was changed after 24 hours. Media was supplemented with 10% fetal bovine serum (Thermo Fischer). Briefly, cells were cultured in growth media (DMEM/F12 supplemented with B27, 10 ng/mL bFGF, and 20 ng/mL EGF (Life Technologies) in ultra-low attachment flasks) for up to 6 days. The spheroid cells were maintained by collection through gentle centrifugation, dissociation to single cells and replating.
(§2) Cell proliferation assay: Twenty-four hours after transfection, cells were seeded in 96-well plates at a density of 2000 cells per well. The cell proliferation assay was performed on days 1 to 5 by incubating 10 μl WST-1 (Roche Applied Science, Mannheim, Germany) in the culture medium for 1 h and reading the absorbance at 450 and 630 nm. The cell proliferation rate was calculated by subtracting the […]. Experiments for the cell proliferation assay were performed at least three times. The O.D. was calculated by subtracting the absorbance at 630 nm from that at 450 nm. Proliferation experiments were performed three times.

REH leukemia cells = assay: Cell cycle analysis, REH leukemia cells; type: cell-based, human; details: 50 nM, compared to the control
Description: (§3) Cell cycle analysis: Twenty-four hours after transfection, cells were harvested and resuspended at 0.5 to 1×10^6 cells/mL in modified Krishan's buffer supplemented with 0.02 mg/mL RNase H and 0.05 mg/mL propidium iodide. Stained cells were detected by flow cytometry and results were analyzed with Modfit LT™ software. The experiments for cell cycle analysis were performed at least three times.

[1] = tested on: acute lymphocytic leukemia cell line (REH); assay: Cell proliferation, REH; type: cell-based, human; details: 50 nM, 25 nM, 12.5 nM, 6.25 nM, and 3.125 nM
[2] = tested on: acute lymphocytic leukemia cell line (REH); assay: Cell proliferation, REH; type: cell-based, human; details: compared to negative controls
Description: as §1, §2

AGS stomach cancer cells = assay: Cell proliferation, AGS; type: cell-based, human; details: compared to negative controls
Description: as §1, §2

[3] = tested on: AsPC-1 pancreatic cancer cells; assay: Cell proliferation, AsPC-1; type: cell-based, human; details: APSC-1; 50 nM, 25 nM, 12.5 nM, 6.25 nM, and 3.125 nM
Description: as §1, with “For transfections, 1×10^5 cells were plated in six-well plates and transfected with 100 nM of control non-specific miRNA (Thermo Fischer), a modified microRNA, or exogenous native microRNA after 24 hours using Oligofectamine (Thermo Fischer) following the manufacturer's protocols.” left out
as §2

[4] = tested on: SKBR3 breast cancer cells; assay: Cell proliferation, SKBR3; type: cell-based, human; details: SKBR3, compared to negative controls
Description: as §1, §2

[5] = tested on: Panc-1 pancreatic cancer cells; assay: Cell proliferation, Panc-1; type: cell-based, human; details: PANC-1; 50 nM, 25 nM, 12.5 nM, 6.25 nM, and 3.125 nM
Description: as §1, with “For transfections, 1×10^5 cells were plated in six-well plates and transfected with 100 nM of control non-specific miRNA (Thermo Fischer), a modified microRNA, or exogenous native microRNA after 24 hours using Oligofectamine (Thermo Fischer) following the manufacturer's protocols.” left out
as §2

[6] = tested on: Hs766T pancreatic cancer cells; assay: Cell proliferation, Hs766T; type: cell-based, human; details: compared to negative controls
Description: as §1, §2

[7] = tested on: MDA-MB-231 breast cancer cells; assay: Cell cycle analysis, MDA-MB-231 breast cancer cells; type: cell-based, human; details: compared to native exogenous microRNAs or NC
Description: as §3

TS-FdUMP = target: T1, TS-FdUMP (Homo sapiens, UniProt P04818); assay: Western blot of TS / TS-FdUMP in MDA-MB-231 cells; type: cell-based; details: MDA-MB-231 cell line
T1 construct: endogenous in cells
Description: (§4) Western immunoblot analysis: Forty-eight hours after transfection, equal amounts of protein (15 μg) extracted from cells lysed in RIPA buffer with protease inhibitor (Sigma) and were separated on 10%-12% sodium dodecyl sulfate-polyacrylamide gels using standard procedures. The primary antibodies used for the analysis were rabbit anti-YAP1 monoclonal antibody (1:10000) (Cell Signaling Technologies), anti-DLCK1 (1:500) (Abcam), anti-BCL2 (1:500) (NeoMarkers), anti-MDC1 (1:500), anti-SUZ12 (1:500), anti-pChk-1 (1:500), anti beta-actin (1:500), anti-BMI-1 (1:10000) (Cell Signaling Technologies), mouse anti-human TS antibody (1:500), anti-α-tubulin (1:50000) (Santa Cruz Biotech Inc.), anti-GAPDH (1:100000) (Santa Cruz Biotech Inc.), anti-E2F3 (1:500) (Santa Cruz Biotech Inc.), Horseradish peroxidase-conjugated antibodies against mouse or rabbit (1:5000, Santa Cruz Biotech Inc.) were used as the secondary antibodies. Protein bands were visualized with autoradiography film using SuperSignal West Pico Chemiluminescent Substrate (Thermo Fischer). Western blot density was quantified using Image J software.

fibronectin = assay: Western blot of miR-200b target in breast cancer cells; type: cell-based, human; details: compared to exogenous native miR-200b and negative control
Description: as §4

[8] = tested on: MDA-MB-231 triple negative breast cancer cells; assay: MTT cell proliferation, MDA-MB-231, with or without oligofectamine; type: cell-based, human; details: for cell proliferation without delivery vehicle (no oligofectamine): MDA-MB-231, MTT assay; for cell proliferation in the presence of oligofectamine: MDA-MB-231, MTT assay for 6 days, vs miR-NC
Description: as §1
Furthermore, to test whether or not the modified microRNAs of the present disclosure can be delivered directly to cells and taken up by the cancer cells without the use of transfer agents or vehicles (i.e., oligofectamine), MDA-MB-231 triple negative breast cancer cells were transfected with miR-NC (negative control), exogenous unmodified miR-200b or miR-489, 5-FU-miR-200b or modified miR-489 by using oligofectamine or without delivery vehicle. As shown in FIGS. 17A-17B and 20A, the effects of expression of the exemplary modified miRs tested on breast cancer cell proliferation were monitored by MTT assay for 6 days upon transfection or incubation.

[9] = tested on: YAP1, BMI1, DCLK1 and BCL2; assay: Western blot of miR-15a targets in HCT-116 colon cancer stem cells; type: cell-based, human; details: three days following transfection
Description: as §4, with “[…],” for “Forty-eight hours after transfection,”, “software. […]” for “software.”

HCT-116 cells = assay: Cell cycle analysis by flow cytometry, colon cancer cells; type: cell-based, human; details: colon cancer cells, compared to the control
Description: as §3

[10] = tested on: HCT116 colon cancer cells; assay: WST-1 cell proliferation assay, HCT116; type: cell-based, human; details: HCT-116, WST-1, six days after transfection
Description: as §1, with “1×10^5 cells were plated in six-well plates and transfected with 100 nM of control non-specific miRNA (Thermo Fischer), a modified microRNA, or exogenous native microRNA after 24 hours using Oligofectamine” left out
as §2

colon cancer stem cells = assay: Anchorage-independent colony formation (soft agar); type: cell-based, human; details: soft agar / Matrigel matrix
Description: Anchorage-independent proliferation was studied to determine cancer cell colony forming ability. Cancer cells were trypsinized and counted and a total of 1×10^5 cells per well were transfected in 6-well plates with 25 nM modified microRNA or native miRs or a negative control miRNA with oligofectamine, and 6 hours after transfection, cells were recounted. A total of 20,000 cells in 0.35% agar (Bacto Agar; Becton Dickinson) were layered on top of 1 mL of a solidified 0.6% agar layer in a 35-mm dish. Growth media with B27, 10 ng/mL bFGF, and 20 ng/mL EGF were included in both layers. After 2 weeks of incubation, colonies more than […] in diameter were counted.

MDC1 and SUZ12 = assay: Western blot of MDC1 and SUZ12 in triple negative breast cancer cells; type: cell-based, human; details: triple negative breast cancer cells, western blot
Description: as §4

T1 sequence (P04818 2-313 limits assumed): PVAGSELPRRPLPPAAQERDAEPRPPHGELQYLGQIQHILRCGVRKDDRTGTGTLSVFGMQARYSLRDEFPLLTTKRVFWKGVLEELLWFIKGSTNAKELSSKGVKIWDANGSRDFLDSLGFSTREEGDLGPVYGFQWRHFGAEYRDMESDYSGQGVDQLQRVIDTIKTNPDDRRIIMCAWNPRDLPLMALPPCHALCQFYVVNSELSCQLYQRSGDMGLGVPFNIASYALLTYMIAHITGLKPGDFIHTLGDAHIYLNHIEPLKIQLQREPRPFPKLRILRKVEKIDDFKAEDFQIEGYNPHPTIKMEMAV

What does the source list for “GU^FCCAGU^FU^FU^FU^FCCCAGGAAU^FCCCU^F (GUCCAGUUUUCCCAGGAAUCCCU; RNA, [5FU] at 2, 7, 8, 9, 10, 19, 23, backbone not given here) [modified miR-145]”?
lung cancer cell proliferation (A549 lung cancer cells): inhibited; G1/S ratio (REH leukemia cells): significant fold increase in the G1/S ratio; leukemia cancer cell proliferation, dose dependence [1]: inhibited in a dose dependent manner; leukemia cancer cell proliferation [2]: inhibited; gastric cancer cell proliferation (AGS stomach cancer cells): inhibited; cell proliferation, dose dependence [3]: inhibited in a dose dependent manner; breast cancer cell proliferation [4]: inhibited; cell proliferation, dose dependence [5]: inhibited in a dose dependent manner; pancreatic cancer cell proliferation [6]: inhibited

“U^FGAGGU^FAGU^FAGGU^FU^FGU^FAU^FAGU^FU^F [modified miR-let-7]” was tested. Which “lung cancer cell proliferation” value (A549 lung cancer cells) did it give?
The value was “inhibited”.

What about the G1/S ratio (REH leukemia cells) of the same substance?
The G1/S ratio was “significant fold increase in the G1/S ratio”.

What about the “leukemia cancer cell proliferation, dose dependence” value [1] of the same substance?
The value was “inhibited in a dose dependent manner”.

And the “leukemia cancer cell proliferation” value [2]?
Its value is “inhibited”.

What about the “gastric cancer cell proliferation” value (AGS stomach cancer cells) of the same substance?
Its value is “inhibited”.

What about the “cell proliferation, dose dependence” value [3] of the same substance?
The value was “inhibited in a dose dependent manner”.

And the “breast cancer cell proliferation” value [4]?
Its value is “inhibited”.

What about the “cell proliferation, dose dependence” value [5] of the same substance?
Its value is “inhibited in a dose dependent manner”.

What about the “pancreatic cancer cell proliferation” value [6] of the same substance?
The value was “inhibited”.

“U^FAAU^FACU^FGCCU^FGGU^FAAU^FGAU^FGA (UAAUACUGCCUGGUAAUGAUGA; RNA, [5FU] at 1, 4, 7, 11, 14, 17, 20, backbone not given here) [modified miR-200b, miR-200b in which all (7) U bases are replaced by 5-fluorouracil]” was tested. Which “sub G1 and G1/S ratio” value [7] did it give?
The value was “significantly increase”.

What about the “lung cancer cell proliferation” value (A549 lung cancer cells) of the same substance?
The value was “inhibited”.

And the TS-FdUMP break down (TS-FdUMP)?
The TS-FdUMP break down was “breaks down TS-FdUMP”.

And the “leukemia cancer cell proliferation, dose dependence” value [1]?
The value was “inhibited in a dose dependent manner”.

What about the “leukemia cancer cell proliferation” value [2] of the same substance?
Its value is “inhibited”.

And the “gastric cancer cell proliferation” value (AGS stomach cancer cells)?
Its value is “inhibited”.

And the “fibronectin (miR-200b target gene) expression” value (fibronectin)?
Its value is “reduction of fibronectin”.

And the “cell proliferation without delivery vehicle (no oligofectamine)” value [8]?
The value was “effectively reduced cell proliferation”.

What about the “cell proliferation in the presence of oligofectamine” value [8] of the same substance?
Its value is “dramatically reduced the cell growth from day 3”.

And the “cell proliferation, dose dependence” value [3]?
The value was “inhibited in a dose dependent manner”.

And the “breast cancer cell proliferation” value [4]?
Its value is “inhibited”.

What about the “cell proliferation, dose dependence” value [5] of the same substance?
The value was “inhibited in a dose dependent manner”.

And the “pancreatic cancer cell proliferation” value [6]?
The value was “inhibited”.

For “UAGCAGCACAUAAUGGUUUGUG (RNA, backbone not given here; listed as Homo sapiens) [unmodified miR-15a, reference compound]”, which “protein levels of YAP1, BMI1, DCLK1 and BCL2” value [9] is on record?
The value was “reduced”.

What about the “increase in the G1/S ratio” value (HCT-116 cells) of the same substance?
The value was “about 3 fold”.

What about the “decrease of cell proliferation compared to control” value [10] of the same substance?
Its value is 53%.

And the “colony / sphere formation” value (colon cancer stem cells)?
Its value is “very few colonies”.

With “CGACGGCAUAUACACUACAGUG (chemistry not fully specified; listed as Homo sapiens) [native miR-489, 31]” as the substance, how does the “MDC1 and SUZ12 protein expression” value (MDC1 and SUZ12) read?
The value was “reduction of MDC1 and SUZ12 protein expression”.

What about the “cell proliferation without delivery vehicle (no oligofectamine)” value [8] of the same substance?
Its value is “did not inhibit cell growth”.

And the “cell proliferation in the presence of oligofectamine” value [8]?
Its value is “reduced the rate of cell proliferation”.

What about the “cancer cell proliferation, native miR without 5-FU chemotherapy” value ([8]; MDA-MB-231, MTT, compared with 5 μM 5-FU alone) of the same substance?
Its value is “reduces cancer cell proliferation in a manner similar to that exhibited when cells are treated with 5-FU alone”.
